Assay results from ChEMBL document CHEMBL4342407, “Thieno[2,3-d]pyrimidine as a promising scaffold in medicinal chemistry: Recent advances” (Bioorg Med Chem, 2019).
pIC50: −log10 of the molar value.

Columns and labels:
[1] = tested on: Rattus norvegicus; assay: Antiinflammatory activity in Wistar rat assessed as inhibition of cotton pellet-induced granuloma at 75 mg/kg, po administered daily for 7 days and measured on day 8 relative to control; format: functional
[2] = tested on: Rattus norvegicus; assay: Antiinflammatory activity in po dosed Wistar rat assessed as reduction in carrageenan-induced paw edema pretreated for 1 hr followed by carrageenan challenge and measured over 2 to 4 hrs post carrageenan challenge by plethysmography; format: functional
[3] = tested on: Rattus norvegicus; assay: Antiinflammatory activity in Wistar rat model of Freund's adjuvant-induced arthritis assessed as inhibition of arthritis by measuring reduction in paw volume at 75 mg/kg, po administered once daily for 8 days starting from day 7 post Freund's adjuvant treatment and measured after 18 days by mercury plethysmography relative to control; format: functional
[4] = tested on: Mus musculus; assay: Antiinflammatory activity in Swiss mouse assessed as inhibition of TPA-induced ear edema at 1 mg/ear applied topically and measured 4 hrs post-TPA challenge relative to control; format: functional
[5] = tested on: Pseudomonas aeruginosa; assay: Antibacterial activity against Pseudomonas aeruginosa assessed as zone inhibition at 500 ug/ml by cup plate agar diffusion method; format: functional; details: read-out: IZ
[6] = tested on: Candida albicans; assay: […] activity against Candida albicans assessed as zone inhibition at 500 ug/ml by cup plate agar diffusion method; format: functional; details: for zone of inhibition at 500 µg/mL: read-out: IZ
[7] = tested on: Escherichia coli; assay: Antibacterial activity against Escherichia coli assessed as zone inhibition at 500 ug/ml by cup plate agar diffusion method; format: functional; details: read-out: IZ
[8] = tested on: Staphylococcus aureus; assay: Antibacterial activity against Staphylococcus aureus assessed as zone inhibition at 500 ug/ml by cup plate agar diffusion method; format: functional; details: read-out: IZ
[9] = tested on: Bacillus subtilis; assay: Antibacterial activity against Bacillus subtilis assessed as zone inhibition at 500 ug/ml by cup plate agar diffusion method; format: functional; details: read-out: IZ
[10] = tested on: HeLa; assay: Antiproliferative activity against human HeLa after 24 hrs by MTT assay; format: functional, cell-based
[11] = tested on: PC-3; assay: Antiproliferative activity against human PC3 after 24 hrs by MTT assay; format: functional, cell-based; details: PC-3, 24 h
[12] = tested on: HepG2; assay: Antiproliferative activity against human HepG2 after 24 hrs by MTT assay; format: functional, cell-based; details: HepG2, 24 h
[13] = tested on: HEp-2; assay: Antiproliferative activity against human Hep2 after 24 hrs by MTT assay; format: functional, cell-based; details: HEp-2, 24 h
[14] = tested on: MCF7; assay: Antiproliferative activity against human MCF7 after 24 hrs by MTT assay; format: functional, cell-based; details: MCF7, 24 h
[15] = tested on: Rattus norvegicus; assay: Anti-ulcer activity in Wistar albino rat assessed as reduction in pylorus ligation induced ulcer at 250 mg/kg, ip pretreated for 1 hr followed by pylorus ligation and measured at 4 hrs post ligation; format: functional
[16] = Ulcerogenic activity in Wistar albino rat assessed as ulcer index at 250 mg/kg, ip pretreated for 1 hr followed by pylorus ligation and measured at 4 hrs post ligation; format: toxicity, organism-based; details: in vivo
[17] = tested on: Rattus norvegicus; assay: Antiinflammatory activity in Sprague-Dawley rat assessed as protection against carrageenan-induced edema at 40 mg/kg, po pretreated for 1 hr followed by carrageenan challenge and measured after 3 hrs by mercury plethysmometer relative to control; format: functional
[18] = tested on: HepG2; assay: Antiproliferative activity against human HepG2 cells by MTT assay; format: functional, cell-based
[19] = tested on: MCF7; assay: Antiproliferative activity against human MCF7 by MTT assay; format: functional, cell-based
[20] = tested on: Klebsiella pneumoniae; assay: Antibacterial activity against Klebsiella pneumoniae assessed as zone inhibition at 100 ug/ml; format: functional; details: read-out: IZ
[21] = tested on: Staphylococcus aureus; assay: Antibacterial activity against Staphylococcus aureus assessed as zone inhibition at 100 ug/ml; format: functional; details: read-out: IZ
[22] = tested on: Bacillus subtilis; assay: Antibacterial activity against Bacillus subtilis assessed as zone inhibition at 100 ug/ml; format: functional; details: read-out: IZ
[23] = tested on: Escherichia coli; assay: Antibacterial activity against Escherichia coli assessed as zone inhibition at 100 ug/ml; format: functional; details: read-out: IZ

Work on O=C(NN1C(S)=Nc2sc3c(c2C1c1ccccc1)CCCC3)c1ccccc1 (stereo not drawn) yielded an inhibition in vivo at 75 mg/kg [1] of 41.8%, an ED50 [2] of 62.7 mg/kg and an inhibition in vivo at 75 mg/kg [3] of 25.6%. The “inhibition (INH)” value [4] was 57.9%.
For FC(F)(F)Oc1ccc(C2=Nc3ccccc3SC(c3cc4cncnc4s3)C2)cc1 (stereo not drawn), the zone of inhibition at 500 µg/mL [5] was 13.2 mm, the zone of inhibition at 500 µg/mL [6] was 10.6 mm and the zone of inhibition at 500 µg/mL [7] was 12.3 mm. It also gave a zone of inhibition at 500 µg/mL [8] of 15.1 mm and a zone of inhibition at 500 µg/mL [9] of 15.3 mm.
CSC1=[N+](N)C(c2ccccc2)c2c(sc3c2CCCC3)N1.[I-] (stereo not drawn) showed an inhibition in vivo at 75 mg/kg [1] of 29.9%, an ED50 [2] of 72.5 mg/kg and an inhibition in vivo at 75 mg/kg [3] of 10%. The “inhibition (INH)” value [4] was 20.8%.
Cc1c(C(=O)/C=C/c2cc(Br)cs2)sc2nc(S)n(-c3ccccc3)c(=O)c12 gave a pIC50 [10] of 4.75, a pIC50 [11] of 4.56 and a pIC50 [12] of 4.52. It also gave a pIC50 [13] of 4.50 and a pIC50 [14] of 4.59.
For C[C@]12CC[C@H]3[C@@H](CC=C4CC(O)CC[C@@]43C)[C@@H]1CC[C@@H]2c1csc(N)c1C(=O)NNC(=S)Nc1ccccc1 (stereo partly drawn), the inhibition in vivo at 250 mg/kg [15] was 41.4%, the UI [16] was 2.11 and the Activity [17] was 81%.
Work on CC(=O)NN1C(S)=Nc2sc3c(c2C1c1ccccc1)CCCC3 (stereo not drawn) yielded an inhibition in vivo at 75 mg/kg [1] of 39.9%, an ED50 [2] of 66.7 mg/kg and an inhibition in vivo at 75 mg/kg [3] of 28.9%. The “inhibition (INH)” value [4] was 35.1%.
COc1ccc(NC(=O)c2sc3nc(N4CCOCC4)nc(-c4ccccc4)c3c2N)cc1 showed a pIC50 [10] of 4.21 and a pIC50 [14] of 4.56.
For COc1ccc(/C=C/C(=O)c2sc3nc(S)n(-c4ccccc4)c(=O)c3c2C)cc1, the pIC50 [10] was 4.64, the pIC50 [11] was 4.54 and the pIC50 [12] was 4.48. For the same molecule, the pIC50 [13] was 4.40 and the pIC50 [14] was 4.54.
Molecule CC1(C)S[C@@H]2[C@H](NC(=O)[C@H](N)c3ccccc3)C(=O)N2[C@H]1C(=O)O [AMPICILLIN] has a zone of inhibition at 500 µg/mL [5] of 21 mm, a zone of inhibition at 500 µg/mL [7] of 25 mm and a zone of inhibition at 500 µg/mL [8] of 22 mm. The zone of inhibition at 500 µg/mL [9] was 24 mm.
For FC(F)(F)c1nc(NCc2ccc(Cl)cc2)c2c3c(sc2n1)CCC3, the pIC50 [18] was 5.06 and the pIC50 [19] was 4.86.
Nc1c(C(=O)Nc2ccc(Cl)cc2)sc2nc(N3CCOCC3)nc(-c3ccccc3)c12 gave a pIC50 [10] of 4.30 and a pIC50 [14] of 4.72.
Work on FC(F)(F)c1nc(NCc2ccccc2)c2c3c(sc2n1)CCC3 yielded a pIC50 [18] of 4.87 and a pIC50 [19] of 4.93.
For C[C@]12CC[C@H]3[C@@H](CC=C4CC(O)CC[C@@]43C)[C@@H]1CC[C@@H]2c1csc(N)c1-c1nnc(S)n1-c1ccccc1 (stereo partly drawn), the inhibition in vivo at 250 mg/kg [15] was 64.2%, the UI [16] was 1.29 and the Activity [17] was 96%.
FC(F)(F)c1ccc(C2=Nc3ccccc3SC(c3cc4cncnc4s3)C2)cc1 (stereo not drawn) showed a zone of inhibition at 500 µg/mL [5] of 16.1 mm, a zone of inhibition at 500 µg/mL [6] of 16 mm and a zone of inhibition at 500 µg/mL [7] of 16.2 mm. For the same molecule, the zone of inhibition at 500 µg/mL [8] was 17 mm and the zone of inhibition at 500 µg/mL [9] was 18.8 mm.
COc1ccccc1CNc1nc(C(F)(F)F)nc2sc3c(c12)CCC3 gave a pIC50 [18] of under 4.00 and a pIC50 [19] of under 4.00.
C[C@]12CC[C@H]3[C@@H](CC=C4CC(O)CC[C@@]43C)[C@@H]1CC[C@@H]2C1=CSC2N=CN(N)C(=O)C12 (stereo partly drawn) gave an inhibition in vivo at 250 mg/kg [15] of 71.7%, a UI [16] of 1.02 and an Activity [17] of 24%.
For c1csc(C2=Nc3ccccc3SC(c3cc4cncnc4s3)C2)c1 (stereo not drawn), the zone of inhibition at 500 µg/mL [5] was 19.4 mm, the zone of inhibition at 500 µg/mL [6] was 19.6 mm and the zone of inhibition at 500 µg/mL [7] was 19.4 mm. The zone of inhibition at 500 µg/mL [8] was 19.2 mm and the zone of inhibition at 500 µg/mL [9] was 19.4 mm.
With C[C@]12CC[C@H]3[C@@H](CC=C4CC(O)CC[C@@]43C)[C@@H]1CC[C@@H]2c1csc(N)c1C(=O)NN (stereo partly drawn) the inhibition in vivo at 250 mg/kg [15] was 82.7%, the UI [16] was 0.62 and the Activity [17] was 87%.
Work on NYSTATIN yielded an inhibition zone (IZ) [6] of 20.8 mm.
With CC1(C)S[C@@H]2[C@H](NC(=O)[C@H](N)c3ccc(O)cc3)C(=O)N2[C@H]1C(=O)O [AMOXICILLIN] the zone of inhibition at 100 µg/mL [20] was 18 mm, the zone of inhibition at 100 µg/mL [21] was 17.6 mm and the zone of inhibition at 100 µg/mL [22] was 15.5 mm. For the same molecule, the zone of inhibition at 100 µg/mL [23] was 19.5 mm.
